Experiments:
[1] = target: SSTR1 (Homo sapiens (Human), UniProt P30872); assay: SSTR1 I-125 somatostatin competition binding assay for selectivity versus SSTR4 (membranes from CHO-K1 cells overexpressing SSTR1); details: for SSTR1 Binding pIC50: competition with I-125 labeled somatostatin, CHO-K1 SSTR1 membranes;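 on all read-outs here: Filter-based radioligand binding, bound label counted by scintillation after 60 min incubation at room temperature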
Experimental: Membranes from CHO-K1 cells overexpressing SSTR1 are purchased from Perkin Elmer (catalog number ES-520-M400UA). […] Then 10 μg of SSTR1 membranes in 50 μL assay buffer are added per well. The plate is incubated for 60 minutes at room temperature. […] The contents of the assay plate are transferred to filters with a TomTech harvester and washed 5 times with 20 mM HEPES, 100 mM NaCl. […] The scintillator sheets are melted to the filters using a heat block. The filters are then read in a MicroBeta scintillation counter. Binding Ki curves are generated using Activity Base for Screening Data Management and the results are reported as pIC50.

[2] = target: T1, SSTR4 (Homo sapiens (Human), UniProt P31391); assay: Inhibition of forskolin stimulated cAMP in CHO-K1 cells overexpressing SSTR4; format: cell-based; details: for EC50: read-out: SSTR4 Activity pEC50 (converted)
How it was run: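 Read-out is a HTRF LANCE Ultra cAMP competition using Eu-labelled streptavidin and biotin-cAMP, incubated 60 min at room temperature. It followed a 30 min room-temperature exposure of Kreb's Ringer-washed cells to compound plus forskolin. Potency is expressed as pEC50.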

[3] = target: T1, SSTR4; assay: SSTR4 I-125 somatostatin competition binding assay (membranes from CHO-K1 cells overexpressing SSTR4); details: competition with I-125 labeled somatostatin; for IC50: read-out: SSTR4 Binding pIC50 (converted)

T1 sequence (P31391 whole entry): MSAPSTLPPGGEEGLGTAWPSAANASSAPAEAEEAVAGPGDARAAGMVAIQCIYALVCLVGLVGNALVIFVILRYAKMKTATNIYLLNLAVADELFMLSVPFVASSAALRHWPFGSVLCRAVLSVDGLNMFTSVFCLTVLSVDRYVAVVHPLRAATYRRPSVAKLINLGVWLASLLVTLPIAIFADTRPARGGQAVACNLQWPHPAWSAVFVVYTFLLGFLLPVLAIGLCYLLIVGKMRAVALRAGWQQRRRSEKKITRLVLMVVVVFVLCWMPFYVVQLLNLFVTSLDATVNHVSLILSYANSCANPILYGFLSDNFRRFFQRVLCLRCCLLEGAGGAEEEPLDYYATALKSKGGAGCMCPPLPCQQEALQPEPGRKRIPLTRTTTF
Chain of SSTR1 (P30872 whole entry): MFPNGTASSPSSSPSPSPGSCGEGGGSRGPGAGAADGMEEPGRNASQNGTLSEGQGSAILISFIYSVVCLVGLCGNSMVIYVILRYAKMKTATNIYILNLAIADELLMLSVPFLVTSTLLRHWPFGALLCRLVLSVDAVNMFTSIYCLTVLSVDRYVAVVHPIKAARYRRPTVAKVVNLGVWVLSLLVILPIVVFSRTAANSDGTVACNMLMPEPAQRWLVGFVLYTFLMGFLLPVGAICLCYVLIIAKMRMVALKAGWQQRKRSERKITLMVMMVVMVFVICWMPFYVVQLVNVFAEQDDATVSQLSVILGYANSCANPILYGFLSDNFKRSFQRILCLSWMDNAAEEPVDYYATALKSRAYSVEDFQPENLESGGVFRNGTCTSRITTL

Compound | SSTR1 Binding pIC50 [1] | SSTR4 Activity pEC50 [2] | SSTR4 Binding pIC50 [3] | IC50 [1] [nM] | EC50 [2] [nM] | IC50 [3] [nM]
Cc1nn(C)cc1[C@@H]1CN(C)C[C@H]1NC(=O)C(C)(C)COc1ncccc1OC(F)(F)F (relative stereo) [Example 29, trans-N-(4-(1,3-dimethyl-1H-pyrazol-4-yl)-1-methylpyrrolidin-3-yl)-2,2-dimethyl-3-((3-(trifluoromethoxy)pyridin-2-yl)oxy)propanamide] | 6.4 | 8.4 | 7.4 | – | – | –
CN1CC[C@H](NC(=O)C(C)(C)COc2ncccc2C(F)(F)F)[C@@H](F)C1 [Example 117, N-((3S,4S)-3-fluoro-1-methylpiperidin-4-yl)-2,2-dimethyl-3-((3-(trifluoromethyl)pyridin-2-yl)oxy)propanamide] | 4.5 | 7.6 | 6.7 | – | – | –
C[C@@H]1C[C@H](NC(=O)C(C)(C)COc2ncccc2C2CC2)CCN1C [Example 147, 3-((3-cyclopropylpyridin-2-yl)oxy)-N-((2R,4R)-1,2-dimethylpiperidin-4-yl)-2,2-dimethylpropanamide] | 5.3 | 8.6 | 7.5 | – | – | –
Cc1cccnc1OCC(C)(C)C(=O)N[C@@H]1CCN(C)C[C@H]1C (relative stereo) [Example 17, trans-N-(1,3-dimethylpiperidin-4-yl)-2,2-dimethyl-3-((3-methylpyridin-2-yl)oxy)propanamide] | 4.7 | 7.7 | 6.7 | – | – | –
CC(C)(COc1ccccc1Cl)C(=O)NC1CCNCC1 [Example 213, 3-(2-chlorophenoxy)-2,2-dimethyl-N-(piperidin-4-yl)propanamide] | 4.6 | 8.7 | 7.6 | – | – | –
CC[C@@H]1CN(C)CC[C@H]1NC(=O)C(C)(C)COc1ncccc1C (racemic) [Example 127, trans-N-(3-ethyl-1-methylpiperidin-4-yl)-2,2-dimethyl-3-((3-methylpyridin-2-yl)oxy)propanamide] | – | – | – | 7940 | 12.6 | 79.4
C[C@@H]1CN(C)C[C@H]1NC(=O)C(C)(C)COc1ncccc1C1CC1 (racemic) [Example 181, 3-((3-cyclopropylpyridin-2-yl)oxy)-N-(trans-1,4-dimethylpyrrolidin-3-yl)-2,2-dimethylpropanamide] | – | – | – | 3160 | 15.8 | 398
Cc1nn(C)cc1[C@@H]1CN(C)C[C@H]1NC(=O)C(C)(C)COc1ncccc1C1CC1 (relative stereo) [Example 24, trans-3-((3-cyclopropylpyridin-2-yl)oxy)-N-(4-(1,3-dimethyl-1H-pyrazol-4-yl)-1-methylpyrrolidin-3-yl)-2,2-dimethylpropanamide] | 6.4 | 8.3 | 7.0 | – | – | –
C[C@H]1CNCC[C@@H]1NC(=O)C(C)(C)COc1ccccc1Cl [Example 190, 3-(2-chlorophenoxy)-2,2-dimethyl-N-((3S,4S)-3-methylpiperidin-4-yl)propanamide] | 5.3 | 9.8 | 7.6 | – | – | –
Cc1ccccc1[C@@H]1CNCC[C@H]1N(C)C(=O)C(C)(C)COc1ncccc1C(F)(F)F (relative stereo) [Example 155, N,2,2-trimethyl-N-(trans-3-(o-tolyl)piperidin-4-yl)-3-((3-(trifluoromethyl)pyridin-2-yl)oxy)propanamide] | 5.4 | 8.0 | 7.2 | – | – | –
Cc1cccnc1OCC(C)(C)C(=O)N[C@H]1CCN(C)C[C@@H]1C [Example 143, N-((3S,4S)-1,3-dimethylpiperidin-4-yl)-2,2-dimethyl-3-((3-methylpyridin-2-yl)oxy)propanamide] | 4.8 | 7.9 | 6.9 | – | – | –
Cc1ccccc1[C@@H]1CNCC[C@H]1NC(=O)C(C)(C)COc1ncccc1C(F)(F)F (relative stereo) [Example 157, 2,2-dimethyl-N-(trans-3-(o-tolyl)piperidin-4-yl)-3-((3-(trifluoromethyl)pyridin-2-yl)oxy)propanamide] | 7.0 | 9.9 | 8.8 | – | – | –
CN1CC[C@@H](NC(=O)C(C)(C)COc2ccccc2C2CC2)C1 [Example 71, (R)-3-(2-cyclopropylphenoxy)-2,2,-dimethyl-N-(1-methylpyrrolidin-3-yl)propanamide] | 5.3 | 8.3 | 7.3 | – | – | –
Cc1c([C@@H]2CN(C)C[C@H]2NC(=O)C(C)(C)COc2ncccc2C2CC2)cnn1C (relative stereo) [Example 27, trans-3-((3-cyclopropylpyridin-2-yl)oxy)-N-(4-(1,5-dimethyl-1H-pyrazol-4-yl)-1-methylpyrrolidin-3-yl)-2,2-dimethylpropanamide] | 6.9 | 8.9 | 7.6 | – | – | –
CN1CC[C@H](NC(=O)C(C)(C)COc2ccccc2Cl)[C@@H](F)C1 [Example 188, 3-(2-chlorophenoxy)-N-((3S,4S)-3-fluoro-1-methylpiperidin-4-yl)-2,2-dimethylpropanamide] | 5.0 | 8.2 | 7.6 | – | – | –
CC[C@@H]1CN(C)CC[C@H]1NC(=O)C(C)(C)COc1ncc(C)cc1C (racemic) [Example 128, trans-3-((3,5-dimethylpyridin-2-yl)oxy)-N-(3-ethyl-1-methylpiperidin-4-yl)-2,2-dimethylpropanamide] | – | – | – | 3160 | 15.8 | 63.1
CN1CCC(NC(=O)C(C)(C)COc2ncccc2C(F)(F)F)CC1 [Example 41, 2,2-dimethyl-N-(1-methylpiperidin-4-yl)-3-((3-(trifluoromethyl)pyridin-2-yl)oxy)propanamide] | 4.2 | 7.4 | 6.4 | – | – | –
CN1CCC(NC(=O)C(C)(C)COc2ccccc2OC(F)(F)F)CC1 [Example 102, 2,2-dimethyl-N-(1-methylpiperidin-4-yl)-3-(2-(trifluoromethoxy)phenoxy)propanamide] | 5.6 | 8.7 | 7.8 | – | – | –

— US11045457B2, “Piperidinyl-3-(aryloxy)propanamides and propanoates” (priority 2018, dated 2021)
